Results reported in patent publication US9649309B2 (priority 2014, dated 2017).
Where two headings read alike, the source gives them in different places.

Columns and labels:
MerTK = MerTK (Homo sapiens (Human), UniProt Q12866); settings: read-out: IC50 MerTK
Tyro3 [1] = target: T1, Tyro3 (Homo sapiens (Human), UniProt Q06418); settings: read-out: IC50 Tyro3
Axl [2] = target: T2, Axl (Homo sapiens (Human), UniProt P30530); settings: read-out: IC50 Axl
Tyro3 [3] = target: T1, Tyro3; assay: biochemical
Axl [4] = target: T2, Axl; assay: biochemical

T2 sequence (P30530 26-894 limits assumed): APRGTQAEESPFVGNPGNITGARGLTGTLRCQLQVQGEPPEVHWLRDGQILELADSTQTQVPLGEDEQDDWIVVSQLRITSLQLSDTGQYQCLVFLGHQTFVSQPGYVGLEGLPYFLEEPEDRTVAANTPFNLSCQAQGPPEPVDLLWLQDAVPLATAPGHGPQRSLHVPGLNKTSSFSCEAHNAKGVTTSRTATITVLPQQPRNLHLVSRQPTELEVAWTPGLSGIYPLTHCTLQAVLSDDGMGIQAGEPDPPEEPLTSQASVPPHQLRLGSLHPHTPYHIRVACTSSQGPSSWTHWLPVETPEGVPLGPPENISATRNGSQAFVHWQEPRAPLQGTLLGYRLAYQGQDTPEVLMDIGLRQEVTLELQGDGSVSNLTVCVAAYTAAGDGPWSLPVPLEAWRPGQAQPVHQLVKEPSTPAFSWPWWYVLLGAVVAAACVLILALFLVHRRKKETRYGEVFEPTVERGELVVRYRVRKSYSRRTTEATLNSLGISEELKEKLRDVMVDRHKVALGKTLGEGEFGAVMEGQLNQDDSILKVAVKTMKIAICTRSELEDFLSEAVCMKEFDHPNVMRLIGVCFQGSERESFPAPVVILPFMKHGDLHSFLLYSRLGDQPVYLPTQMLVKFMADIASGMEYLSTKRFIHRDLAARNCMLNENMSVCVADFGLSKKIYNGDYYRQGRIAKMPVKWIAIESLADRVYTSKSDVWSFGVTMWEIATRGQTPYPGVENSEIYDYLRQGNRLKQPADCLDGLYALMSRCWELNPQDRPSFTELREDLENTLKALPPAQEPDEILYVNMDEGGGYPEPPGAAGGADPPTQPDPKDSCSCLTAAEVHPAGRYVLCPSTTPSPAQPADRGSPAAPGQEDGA
T1 sequence (Q06418 41-890 limits assumed): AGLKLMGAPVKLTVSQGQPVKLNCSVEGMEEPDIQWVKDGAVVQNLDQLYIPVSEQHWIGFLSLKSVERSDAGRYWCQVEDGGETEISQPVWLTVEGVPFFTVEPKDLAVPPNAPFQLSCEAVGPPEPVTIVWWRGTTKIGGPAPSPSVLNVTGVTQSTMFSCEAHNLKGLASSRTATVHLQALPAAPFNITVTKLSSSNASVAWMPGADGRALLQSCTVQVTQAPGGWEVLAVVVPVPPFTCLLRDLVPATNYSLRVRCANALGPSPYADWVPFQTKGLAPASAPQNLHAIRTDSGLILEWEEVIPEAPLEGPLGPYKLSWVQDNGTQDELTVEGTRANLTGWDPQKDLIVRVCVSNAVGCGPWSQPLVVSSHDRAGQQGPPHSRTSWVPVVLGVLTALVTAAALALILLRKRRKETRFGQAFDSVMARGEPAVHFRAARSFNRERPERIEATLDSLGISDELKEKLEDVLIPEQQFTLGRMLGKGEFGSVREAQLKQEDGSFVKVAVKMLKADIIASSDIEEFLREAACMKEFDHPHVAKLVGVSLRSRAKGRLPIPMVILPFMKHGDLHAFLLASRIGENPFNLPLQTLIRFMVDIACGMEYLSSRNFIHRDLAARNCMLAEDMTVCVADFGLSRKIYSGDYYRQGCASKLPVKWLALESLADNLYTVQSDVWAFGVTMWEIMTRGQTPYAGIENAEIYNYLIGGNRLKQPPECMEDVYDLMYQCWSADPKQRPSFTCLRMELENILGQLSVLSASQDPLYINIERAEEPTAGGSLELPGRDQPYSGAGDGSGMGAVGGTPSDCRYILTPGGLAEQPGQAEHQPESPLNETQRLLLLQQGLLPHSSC
MerTK, sequence (Q12866 21-999 limits assumed): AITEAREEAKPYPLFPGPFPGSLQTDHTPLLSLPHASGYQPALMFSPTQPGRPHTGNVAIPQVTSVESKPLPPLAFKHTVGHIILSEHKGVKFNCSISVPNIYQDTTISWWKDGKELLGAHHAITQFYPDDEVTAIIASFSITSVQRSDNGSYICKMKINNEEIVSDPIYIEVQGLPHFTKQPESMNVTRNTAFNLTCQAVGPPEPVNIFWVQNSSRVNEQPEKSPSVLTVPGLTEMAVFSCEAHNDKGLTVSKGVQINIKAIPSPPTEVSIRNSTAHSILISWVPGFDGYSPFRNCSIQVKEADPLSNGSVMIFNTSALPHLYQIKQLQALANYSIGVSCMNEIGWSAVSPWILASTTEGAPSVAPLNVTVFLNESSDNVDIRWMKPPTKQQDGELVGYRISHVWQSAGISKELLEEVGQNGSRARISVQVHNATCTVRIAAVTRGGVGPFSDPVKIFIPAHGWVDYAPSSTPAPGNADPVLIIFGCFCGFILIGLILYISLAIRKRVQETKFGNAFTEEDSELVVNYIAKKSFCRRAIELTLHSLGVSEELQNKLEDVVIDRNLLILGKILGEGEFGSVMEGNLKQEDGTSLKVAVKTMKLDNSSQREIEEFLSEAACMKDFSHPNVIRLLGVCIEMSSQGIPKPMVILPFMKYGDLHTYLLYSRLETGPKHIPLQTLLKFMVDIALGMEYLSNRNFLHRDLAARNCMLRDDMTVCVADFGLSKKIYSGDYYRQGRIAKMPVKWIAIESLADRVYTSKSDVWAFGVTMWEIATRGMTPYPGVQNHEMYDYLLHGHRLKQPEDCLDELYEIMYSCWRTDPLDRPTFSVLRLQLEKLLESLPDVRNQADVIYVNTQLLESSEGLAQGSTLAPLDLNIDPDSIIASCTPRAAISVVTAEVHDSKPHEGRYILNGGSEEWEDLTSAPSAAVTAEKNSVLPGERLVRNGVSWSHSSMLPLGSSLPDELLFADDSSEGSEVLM

| IC50 (MerTK) [nM] | IC50 (Tyro3 [1]) [nM] | IC50 (Axl [2]) [nM] | Structure (SMILES) | IC50 (Tyro3 [3]) [nM] | IC50 (Axl [4]) [nM] |
| --- | --- | --- | --- | --- | --- |
| 4.4 | 66 | 74 | CCCCNc1ncc(-c2ccc(CC3CCN(C)CC3)cn2)c(N[C@H]2CC[C@H](O)CC2)n1 [UNC4337A, Trans-4-((2-(butylamino)-5-(5-((1-methylpiperidin-4-yl)methyl)pyridin-2-yl)pyrimidin-4-yl)amino)cyclohexan-1-ol] |  |  |
| 1.1 | 8.5 | 9.2 | CCCCNc1ncc(-c2ccc(C=C3CCN(C(C)C)CC3)cn2)c(N[C@H]2CC[C@H](O)CC2)n1 [UNC4340A] |  |  |
|  |  |  | CCCCNc1ncc(-c2ccc(CCN3CCN(C)CC3)cn2)c(N[C@H]2CC[C@H](O)CC2)n1 [UNC2795A] | 82 | 211 |
|  |  |  | CCCCNc1ncc(-c2cc(NC3CCCC3)ncn2)c(N[C@H]2CC[C@H](O)CC2)n1 [UNC3199A] | 847 | 1360 |
|  |  |  | CCCCNc1ncc(C(=O)NCC2CCN(C)CC2)c(N[C@H]2CC[C@H](O)CC2)n1 [UNC2742A] | 247 | 534 |
